# Test results published in patent US6710047B2, “Phthalazines with angiogenesis inhibiting activity” (Novartis AG, priority 1997, dated 2004).
# Where a name gives a salt, the structure may show the parent alone. Read-outs that look alike come from different tables or passages of the source.
# Legend:
# PDGF-receptor kinase = experiment: Inhibition of PDGF-receptor kinase (method of Trinks et al.); format: biochemical
# Method: An inhibitory effect can also be found especially on PDGF-receptor kinase, which is determined according to the method described by Trinks et al. (see J. Med. Chem. 37(7): 1015-27 [1994]). Inhibitory activity is shown here in the micromolar range using a compound of formula I (or an N-oxide thereof); […]
# [1] = molecular target: T1, Flt-1 VEGF-receptor tyrosine kinase (Homo sapiens, UniProt P17948); experiment: Test for activity against Flt-1 VEGF-receptor tyrosine kinase
# T1 sequence (P17948 827-1158 limits assumed): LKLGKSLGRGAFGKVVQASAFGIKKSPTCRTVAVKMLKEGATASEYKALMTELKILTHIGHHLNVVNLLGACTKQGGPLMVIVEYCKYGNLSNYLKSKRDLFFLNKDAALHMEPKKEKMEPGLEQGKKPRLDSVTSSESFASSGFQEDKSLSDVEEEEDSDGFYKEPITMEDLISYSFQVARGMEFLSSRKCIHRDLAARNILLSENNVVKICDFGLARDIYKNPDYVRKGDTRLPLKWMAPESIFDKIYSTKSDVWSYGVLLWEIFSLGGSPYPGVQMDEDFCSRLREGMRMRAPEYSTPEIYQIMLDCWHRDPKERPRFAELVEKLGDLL
# Method: Test for activity against VEGF-receptor tyrosine kinase. The test is conducted using Flt-1 VEGF-receptor tyrosine kinase. […] The reaction is then ended by the addition of 10 μl 0.25 M ethylenediaminetetraacetate (EDTA) pH 7. Using a multichannel dispenser (LAB SYSTEMS, USA), an aliquot of 20 μl is applied to a PVDF (=polyvinyl difluoride) Immobilon P membrane (Millipore, USA), incorporating a Millipore microtiter filter manifold, and connected to a vacuum.
# The test is conducted using Flt-1 VEGF-receptor tyrosine kinase, as described hereinabove.
SMILES,IC50 (PDGF-receptor kinase) [nM],melting point [°C],IC50 [1] [nM],"IC50 ([1]; kinase domain of Flt-1, poly(Glu,Tyr) 4:1, 8 μM [33P]-ATP, 15 minutes at room temperature) [nM]"
"Clc1ccc(Nc2nnc(Cc3ccncc3)c3ccccc23)cc1 [Example 1, 1-(4-Chloroanilino)-4-(4-pyridylmethyl)phthalazine dihydrochloride]",~1000,–,–,–
"Fc1cc(Cl)ccc1Nc1nnc(Cc2ccncc2)c2ccccc12 [Example 44D, 1-(4-Chloro-2-fluoroanilino)-4-(4-pyridylmethyl)phthalazine]",–,157 to 159,317,–
"CCOc1ccc(Nc2nnc(Cc3ccncc3)c3ccccc23)cc1 [Example 44E, 1-(4-Ethoxyanilino)-4-(4-pyridylmethyl)phthalazine]",–,223 to 224,490,–
"Cc1cc(Cc2nnc(Nc3ccc(Cl)cc3)c3ccccc23)ccn1 [Example 44F, 1-(4-Chloroanilino)-4-[(2-methyl-4-pyridyl)methyl]phthalazine]",–,158 to 159,–,624
"Clc1ccc(Nc2nnc(Cc3ccncc3)c3c2CCCC3)cc1 [Example 44H, 1-(4-Chloroanilino) 4-(4-pyridylmethyl)-5,6,7,8-tetrahydrophthalazine]",–,181 to 183,11400,–
Cc1ccc(Nc2nnc(Cc3ccncc3)c3ccccc23)cc1C [Example 45],–,180 to 181,345,–
"Cc1cc(C)cc(Nc2nnc(Cc3ccncc3)c3ccccc23)c1 [Example 46, 1-(3,5-Dimethylanilino)-4-(4-pyridylmethyl)phthalazine]",–,174 to 175,349,–
"Clc1ccc(Nc2nnc(OCc3ccncc3)c3ccccc23)cc1 [Example 50, 1-(4-Chloroanilino)-4-(4-pyridylmethoxy)phthalazine]",–,139 to 141,195,–
"Oc1cccc(Oc2nnc(Cc3ccncc3)c3ccccc23)c1 [Example 56, 1-(3-Hydroxyphenoxy)-4-(4-pyridylmethyl)phthalazine]",–,206 to 207,1000,–
"c1ccc2c(NC3CCCCC3)nnc(Cc3ccncc3)c2c1 [Example 57, 1-Cyclohexylamino-4-(4-pyridylmethyl)phthalazine]",–,137 to 139,16000,–
"c1ccc2c(NC3CCCC3)nnc(Cc3ccncc3)c2c1 [Example 58, 1-Cyclopentylamino-4-(4-pyridylmethyl)phthalazine]",–,163 to 165,7300,–
"Clc1ccc(Nc2nnc(Cc3ccncn3)c3ccccc23)cc1 [Example 66, 1-(4-Chloroanilino)-4-(4-pyrimidinylmethyl)phthalazine]",–,174 to 176,2400,–
CSc1cccc(Nc2nnc(Cc3ccncc3)c3ccccc23)c1 [Example 67D],–,148 to 149,401,–
CCc1cccc(Nc2nnc(Cc3ccncc3)c3ccccc23)c1 [Example 67E],–,143 to 144,440,–
CCOc1cccc(Nc2nnc(Cc3ccncc3)c3ccccc23)c1 [Example 67F],–,193 to 195,1200,–
FC(F)(F)Oc1cccc(Nc2nnc(Cc3ccncc3)c3ccccc23)c1 [Example 67H],–,176 to 178,615,–
CC(=O)c1ccc(Nc2nnc(Cc3ccncc3)c3ccccc23)cc1O [Example 69],–,234 to 236,742,–
Clc1ccc(Oc2nnc(Cc3ccncc3)c3ccccc23)cc1 [Example 72B],–,207 to 208,284,–
Cc1ccc(Oc2nnc(Cc3ccncc3)c3ccccc23)cc1 [Example 72C],–,175 to 176,747,–
COc1ccc(Oc2nnc(Cc3ccncc3)c3ccccc23)cc1 [Example 72D],–,194 to 196,593,–
Clc1ccc(Sc2nnc(Cc3ccncc3)c3ccccc23)cc1 [Example 72E],–,204 to 206,1200,–
"Clc1ccc(Nc2nnc(Cc3ccncc3)c3ncccc23)cc1 [Example 73, 5-(4-Chloroanilino)-8-(4-pyridylmethyl)pyrido[2,3-d]pyridazine]",–,220 to 222,397,–
"Clc1ccc(Nc2nnc(Cc3ccncc3)c3cccnc23)cc1 [Example 74, 8-(4-Chloroanilino)-5-(4-pyridylmethyl)pyrido[2,3-d]pyridazine]",–,196 to 197,1000,–
"Clc1ccc(Nc2nnc(Cc3ccncc3)c3cnccc23)cc1 [Example 75, 1-(4-Chloroanilino)-4-(4-pyridylmethyl)pyrido[3,4-d]pyridazine]",–,227 to 228,1000,–
"Clc1ccc(Nc2nnc(Cc3ccncc3)c3ccncc23)cc1 [Example 76, 4-(4-Chloroanilino)-1-(4-pyridylmethyl)pyrido[3,4-d]pyridazine]",–,220 to 221,3200,–
